One assay has as its target T1, pSTAT6 (Homo sapiens, UniProt P42226).
T1 construct: pY641-STAT6 MSD read-out
T1 sequence (P42226 1-847): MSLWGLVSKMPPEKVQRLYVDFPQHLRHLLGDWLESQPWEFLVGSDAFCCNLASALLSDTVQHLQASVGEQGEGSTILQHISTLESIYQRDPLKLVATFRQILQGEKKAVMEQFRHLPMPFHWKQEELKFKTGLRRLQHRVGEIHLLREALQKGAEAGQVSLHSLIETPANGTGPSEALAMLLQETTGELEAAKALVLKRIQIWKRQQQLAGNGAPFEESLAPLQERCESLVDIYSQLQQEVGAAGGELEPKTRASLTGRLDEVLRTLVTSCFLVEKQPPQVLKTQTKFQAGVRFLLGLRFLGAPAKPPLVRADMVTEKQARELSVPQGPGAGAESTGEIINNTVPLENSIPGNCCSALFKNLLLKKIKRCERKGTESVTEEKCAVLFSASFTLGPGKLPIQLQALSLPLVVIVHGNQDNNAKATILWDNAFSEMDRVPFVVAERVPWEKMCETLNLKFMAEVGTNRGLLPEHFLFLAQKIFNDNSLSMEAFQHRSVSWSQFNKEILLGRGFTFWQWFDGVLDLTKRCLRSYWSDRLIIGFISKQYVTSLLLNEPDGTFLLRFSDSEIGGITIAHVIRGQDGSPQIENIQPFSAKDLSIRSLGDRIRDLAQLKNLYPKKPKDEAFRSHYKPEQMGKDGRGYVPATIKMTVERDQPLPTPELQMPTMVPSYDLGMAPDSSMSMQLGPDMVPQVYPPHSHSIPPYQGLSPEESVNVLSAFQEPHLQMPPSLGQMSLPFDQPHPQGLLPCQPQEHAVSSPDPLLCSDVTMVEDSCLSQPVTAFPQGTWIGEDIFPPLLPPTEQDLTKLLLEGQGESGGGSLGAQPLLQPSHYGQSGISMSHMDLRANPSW
Briefly: MSD-pSTAT-PBMC Assay, pSTAT6 (IL-4 stimulated PBMC). In kind it is cell-based. An excerpt: Cryopreserved Peripheral Blood Mononuclear Cells (PBMC) are from AllCells. Recombinant Human IL-4 and IL-6 are from Peprotech. Mouse monoclonal anti-STAT3 antibody, rabbit monoclonal anti-pY705-STAT3 antibody, rabbit monoclonal Anti-pY641-STAT6 antibody, and lysis buffer are from Cell Signaling Technology (CST). Mouse monoclonal anti-STAT6 antibody is from BioLegend. Assay plates, blocker, and anti-rabbit secondary antibody are from Meso Scale Discovery (MSD).
Cryopreserved PBMCs were thawed out and allowed to recover overnight in IMDM+10% heat-inactivated FBS prior to plating 50,000 (STAT3) or 25,000 (STAT6) cells per well in 96-well U-bottom tissue culture plates. Cells were treated with compound for 3 hrs. then stimulated with 10 ng/mL IL-6 (STAT3) or 1 ng/mL IL-4 (STAT6) for 10 min. Cells were then spun down and washed with ice-cold PBS prior to lysing the cell pellet with 1× lysis buffer (CST) with 1×HALT protease and phosphatase inhibitor cocktail (Thermo). Lysates were transferred to and incubated overnight at 4° C. with shaking in QuickPlex 96-well high bind assay plates (MSD) pre-coated overnight with 30 μL per well of 0.6 μg/mL mouse monoclonal anti-STAT3 antibody (STAT3) or 2 μg/mL mouse monoclonal anti-STAT6 antibody (STAT6) in 1×PBS, and pre-blocked for 1 hour with 3% Blocker-A (MSD). Captured protein in the assay plates were then washed and probed with 25 μL per well of 0.25 μg/ml rabbit monoclonal anti-pY705-STAT3 antibody (STAT3) or 0.18 μg/ml rabbit monoclonal Anti-pY641-STAT6 antibody (STAT6) in 1% Blocker-A for 1 hour at room temperature with shaking, then washed and probed with 25 ul per well of 1 ug/ml Sulfo-TAG Labeled Goat Anti-Rabbit Antibody (MSD) in 1% Blocker-A for 1 hour at room temperature with shaking. Assay plates were then washed and 150 μL of 1× Read Buffer-T (MSD) was added to each well prior to reading on an SQ120 MSD Plate Reader. Assay signal from each sample was subtracted by the signal from unstimulated control wells and normalized to DMSO control wells. IC50 values were calculated using Graph Pad Prism Dose-Response Nonlinear Regression with variable slope. For both pSTAT3 and pSTAT6 A=≤100 nM; B=>100-1000 nM; C=>1000-3000 nM; and D=>3 μM.

Another assay deals with T2, STAT3 (Homo sapiens, UniProt P40763).
T2 construct: Recombinant STAT3 protein (STAT3(G127-1722))
Briefly: STAT3 Fluorescence Polarization (FP) Assay. In kind it is binding. How it is done:
STAT3 Fluorescence Polarization (FP) Assay
An FP assay was developed to determine IC50 values for test substances. Recombinant STAT3 protein (STAT3(G127-1722)) at 25 nM was combined with a fluorescently labeled, phosphotyrosine peptide probe (5-FAM-GpYLPQTV-NH2) at 2 nM in FP buffer (10 mM HEPES pH 7.4, 50 mM NaCl, 1 mM EDTA, 0.05% Tween 20.2 mM DTT). 50 μL of STAT3-probe mixture was added to serial diluted compounds in black, 96-well plates (Greiner BioOne 655076) to a final concentration of 1% DMSO. Reaction components were mixed, and FP was measured after 45-minute incubation at room temperature using a Tecan Spark multimode plate reader. FP signal (mP) was plotted against the log concentration of the test substances and IC50 values were calculated by nonlinear regression analysis using GraphPad Prism software. For STAT3 FP assay. A=≤100 nM; B=>100-1000 nM; C=>1-10 μM; and D=>10 μM.

A further assay deals with T3, STAT6 (Homo sapiens, UniProt P42226).
T3 construct: Recombinant STAT6 protein (STAT6(W123-T658))
T3 sequence (P42226 123-658): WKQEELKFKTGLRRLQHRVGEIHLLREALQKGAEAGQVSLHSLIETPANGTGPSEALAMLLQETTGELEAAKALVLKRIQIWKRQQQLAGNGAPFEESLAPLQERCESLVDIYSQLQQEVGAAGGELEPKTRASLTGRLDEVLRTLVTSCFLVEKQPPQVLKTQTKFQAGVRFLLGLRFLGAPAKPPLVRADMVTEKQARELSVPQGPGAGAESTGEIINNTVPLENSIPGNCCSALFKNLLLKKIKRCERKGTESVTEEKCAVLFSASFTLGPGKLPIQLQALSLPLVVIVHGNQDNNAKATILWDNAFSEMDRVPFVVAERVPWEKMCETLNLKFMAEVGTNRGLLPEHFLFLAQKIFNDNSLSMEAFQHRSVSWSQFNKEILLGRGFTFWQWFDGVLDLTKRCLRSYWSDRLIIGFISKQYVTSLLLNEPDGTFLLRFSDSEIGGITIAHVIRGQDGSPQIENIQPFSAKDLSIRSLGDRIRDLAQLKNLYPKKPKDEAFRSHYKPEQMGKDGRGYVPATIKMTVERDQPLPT
Briefly: STAT6 Fluorescence Polarization (FP) Assay. Format: binding. As to the method:
STAT6 Fluorescence Polarization (FP) Assay
An FP assay was developed to determine IC50 values for test substances. Recombinant STAT6 protein (STAT6(W123-T658)) at 250 nM was combined with a fluorescently labeled, phosphotyrosine peptide probe (5-FAM-Ap[…]-NH2) at 2 nM in FP buffer (10 mM HEPES pH 7.4, 50 mM NaCl, 1 mM EDTA, 0.05% Tween 20, 2 mM DTT), 50 μL of STAT6-probe mixture was added to serial diluted compounds in black, 96-well plates (Greiner BioOne 655076) to a final concentration of 1% DMSO. Reaction components were mixed, and FP was measured after 45-minute incubation at room temperature using a Tecan Spark multimode plate reader. FP signal (mP) was plotted against the log concentration of the test substances and IC50 values were calculated by nonlinear regression analysis using GraphPad Prism software. For STAT6 FP assay. A=≤300 nM; B=>300-3000 nM; C=>3-30 μM; and D=>30 μM.

[1] abbreviates: read-out: pSTAT6 IC50, compound 3 hrs, then 1 ng/mL IL-4 for 10 min, pY641-STAT6.
The mark [2] stands for this setting: compound 3 hrs, then 1 ng/mL IL-4 for 10 min, pY641-STAT6, read-out: pSTAT6 IC50.
[3] abbreviates: recombinant STAT3 25 nM, probe 5-FAM-GpYLPQTV-NH2 2 nM, 45 min, room temperature, read-out: STAT3 FP IC50.
Where [4] appears, read: recombinant STAT6(W123-T658) 250 nM, probe 5-FAM-Ap[…]-NH2 2 nM, 45 min, room temperature, read-out: STAT6 FP IC50.

The values below come from patent publication US20260308186A1, “STAT DEGRADERS AND USES THEREOF” (Recludix Pharma, Inc., priority 2023, published 2026).

Read-outs that look alike come from different tables or passages of the source.

T2 sequence (P40763 127-722 limits assumed): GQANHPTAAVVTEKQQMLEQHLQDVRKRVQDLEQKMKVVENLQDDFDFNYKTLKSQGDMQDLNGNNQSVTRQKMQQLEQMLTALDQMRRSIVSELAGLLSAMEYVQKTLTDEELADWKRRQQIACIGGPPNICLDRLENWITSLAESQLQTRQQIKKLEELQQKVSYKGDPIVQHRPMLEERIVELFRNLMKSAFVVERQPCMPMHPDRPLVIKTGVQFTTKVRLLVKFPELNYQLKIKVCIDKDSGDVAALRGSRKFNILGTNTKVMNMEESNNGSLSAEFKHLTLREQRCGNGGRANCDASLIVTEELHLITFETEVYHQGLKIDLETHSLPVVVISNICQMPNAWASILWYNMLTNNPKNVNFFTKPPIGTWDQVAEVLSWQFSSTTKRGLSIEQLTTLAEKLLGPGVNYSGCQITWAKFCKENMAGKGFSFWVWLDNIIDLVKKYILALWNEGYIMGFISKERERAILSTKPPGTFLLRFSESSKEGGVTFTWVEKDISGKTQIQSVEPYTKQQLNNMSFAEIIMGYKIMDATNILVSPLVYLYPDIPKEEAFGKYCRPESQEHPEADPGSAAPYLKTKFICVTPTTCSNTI

Consider `Cc1ccc2[nH]nc(C(=O)N3CC[C@H]4CC[C@@H](C(=O)N(C)CCCCCCC#Cc5cccc6c5CN(C5CCC(=O)NC5=O)C6=O)N4C(=O)[C@@H](NC(=O)c4ccc5ccc(C(F)(F)P(=O)(O)O)cc5c4)C3)c2c1` (stereo partly drawn) [Compound 11, ((7-(((5S,8S,10aR)-8-((8-(2-(2,6-dioxopiperidin-3-yl)-1-oxoisoindolin-4-yl)oct-7-yn-1-yl)(methyl)carbamoyl)-3-(5-methyl-1H-indazole-3-carbonyl)-6-oxodecahydropyrrolo[1,2-a][1,5]diazocin-5-yl)carbamoyl)naphthalen-2-yl)difluoromethyl)phosphonic acid], for which the IC50 is 100 to 1000 nM at pSTAT6 (setting [1]), 1000 to 10000 nM against STAT3 and less than 300 nM on STAT6.
Turning to `Cc1ccc2[nH]nc(C(=O)N3CC[C@H]4CC[C@@H](C(=O)N(C)CCCCCCC#Cc5cccc6c5CN(C5CCC(=O)NC5=O)C6=O)N4C(=O)[C@@H](NC(=O)c4ccc5ccc(C(F)P(=O)(O)O)cc5c4)C3)c2c1` (stereo partly drawn) [Compound 14, ((7-(((5S,8S,10aR)-8-((8-(2-(2,6-dioxopiperidin-3-yl)-1-oxoisoindolin-4-yl)oct-7-yn-1-yl)(methyl)carbamoyl)-3-(5-methyl-1H-indazole-3-carbonyl)-6-oxodecahydropyrrolo[1,2-a][1,5]diazocin-5-yl)carbamoyl)naphthalen-2-yl)fluoromethyl)phosphonic acid], the IC50 on pSTAT6 (setting [1]) was greater than 3000 nM; at STAT3, greater than 10000 nM; at STAT6, 300 to 3000 nM.
The corresponding values for `Cc1ccc2[nH]nc(C(=O)N3CC[C@H]4CC[C@@H](C(=O)N(C)CCCCCCC#Cc5cccc6c5CN(C5CCC(=O)NC5=O)C6=O)N4C(=O)[C@@H](NC(=O)c4ccc5ccc(CP(=O)(O)O)cc5c4)C3)c2c1` (stereo partly drawn) [Compound 15, ((7-(((5S,8S,10aR)-8-((8-(2-(2,6-dioxopiperidin-3-yl)-1-oxoisoindolin-4-yl)oct-7-yn-1-yl)(methyl)carbamoyl)-3-(5-methyl-1H-indazole-3-carbonyl)-6-oxodecahydropyrrolo[1,2-a][1,5]diazocin-5-yl)carbamoyl)naphthalen-2-yl)methyl)phosphonic acid] are greater than 3000 nM, greater than 10000 nM and 300 to 3000 nM.
As to `Cc1ccc2onc(C(=O)N3CC[C@H]4CC[C@@H](C(=O)N(C)CCCCCCC#Cc5cccc6c5CN(C5CCC(=O)NC5=O)C6=O)N4C(=O)[C@@H](NC(=O)c4ccc5ccc(C(F)(F)P(=O)(O)O)cc5c4)C3)c2c1` (stereo partly drawn) [Compound 22, ((7-(((5S,8S,10aR)-8-((8-(2-(2,6-dioxopiperidin-3-yl)-1-oxoisoindolin-4-yl)oct-7-yn-1-yl)(methyl)carbamoyl)-3-(5-methylbenzo[d]isoxazole-3-carbonyl)-6-oxodecahydropyrrolo[1,2-a][1,5]diazocin-5-yl)carbamoyl)naphthalen-2-yl)difluoromethyl)phosphonic acid], the IC50 on pSTAT6 (setting [2]) is 100 to 1000 nM; on STAT3 (setting [3]) it was greater than 10000 nM; on STAT6 (setting [4]), less than 300 nM.
The corresponding values for `Cc1ccc2onc(C(=O)N3CC[C@H]4CC[C@@H](C(=O)N(C)CC(=O)N[C@H](C(=O)N5C[C@H](O)C[C@H]5C(=O)N[C@@H](C)c5ccc(-c6scnc6C)cc5)C(C)(C)C)N4C(=O)[C@@H](NC(=O)c4ccc5ccc(C(F)(F)P(=O)(O)O)cc5c4)C3)c2c1` [Compound 27, (difluoro(7-(((5S,8S,10aR)-8-((2-(((S)-1-((2S,4R)-4-hydroxy-2-(((S)-1-(4-(4-methylthiazol-5-yl)phenyl)ethyl)carbamoyl)pyrrolidin-1-yl)-3,3-dimethyl-1-oxobutan-2-yl)amino)-2-oxoethyl)(methyl)carbamoyl)-3-(5-methylbenzo[d]isoxazole-3-carbonyl)-6-oxodecahydropyrrolo[1,2-a][1,5]diazocin-5-yl)carbamoyl)naphthalen-2-yl)methyl)phosphonic acid] are greater than 3000 nM, 1000 to 10000 nM and less than 300 nM.
